Measured values reported in US6951868B2, “Azabicyclic-phenyl-fused-heterocyclic compounds for treatment of disease” (Pfizer Inc., priority 2001, dated 2005).

Biological target: T1, chimeric α7-5HT3 ion channel (UniProt P23979+P36544, M226I/T225I)
T1 construct: pore forming region of the mouse 5HT3 receptor (fusion partner, same polypeptide); expressed in transfected cells
Test: Cell-based FLIPR assay measuring the EC50 of α7 nAChR agonists on the chimeric α7-5HT3 receptor
Set-up: species or system human/mouse
Conditions: SH-EP1 cells expressing chimeric α7-5HT3 ion channel; increase in intracellular calcium (Calcium Green fluorescence, FLIPR)
Text: Cell-based Assay for Measuring the EC50 of α7 nAChR Agonists
Construction and Expression of the α7-5HT3 Receptor:
The cDNA encoding the N-terminal 201 amino acids from the human α7 nAChR that contain the ligand binding domain of the ion channel was fused to the cDNA encoding the pore forming region of the mouse 5HT3 receptor as described by Eisele J L, et al., Chimaeric nicotinic-serotonergic receptor combines distinct ligand binding and channel specificities, Nature (1993), December 2;366(6454):479-83, and modified by Groppi, et al., WO 00/73431. The chimeric α7-5HT3 ion channel was inserted into pGS175 and pGS179 which contain the resistance genes for G-418 and hygromycin B, respectively. […]
To assay the activity of the α7-5HT3 ion channel, cells expressing the channel were plated into each well of either a 96 or 384 well dish (Corning #3614) and grown to confluence prior to assay. […] The activity of compounds on the chimeric α7-5HT3 ion channel was analyzed on FLIPR. […] Fluorescent emission was measured above 525 nanometers with an appropriate F-stop to maintain a maximal signal to noise ratio. Agonist activity of each compound was measured by directly adding the compound to cells expressing the chimeric α7-5HT3 ion channel and measuring the resulting increase in intracellular calcium that is caused by the agonist-induced activation of the chimeric ion channel. […]

T1 sequence (P36544+P23979 fused P36544:T225I/P36544:M226I): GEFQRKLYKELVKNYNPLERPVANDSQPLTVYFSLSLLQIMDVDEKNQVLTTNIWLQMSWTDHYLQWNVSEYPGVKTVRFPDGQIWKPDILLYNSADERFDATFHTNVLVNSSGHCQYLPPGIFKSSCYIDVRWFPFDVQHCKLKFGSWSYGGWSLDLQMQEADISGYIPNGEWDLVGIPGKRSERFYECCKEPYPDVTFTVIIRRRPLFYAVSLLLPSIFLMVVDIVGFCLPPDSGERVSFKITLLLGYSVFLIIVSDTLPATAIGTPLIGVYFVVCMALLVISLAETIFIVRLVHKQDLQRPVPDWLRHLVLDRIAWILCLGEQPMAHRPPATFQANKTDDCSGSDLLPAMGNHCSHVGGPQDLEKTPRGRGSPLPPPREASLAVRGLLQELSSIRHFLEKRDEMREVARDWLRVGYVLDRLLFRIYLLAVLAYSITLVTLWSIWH

SMILES | Agonist activity (result in words)
O=C(N[C@H]1CN2CCC1CC2)c1ccc2c(c1)OCC(COCc1ccccc1)O2.O=C(O)/C=C/C(=O)O (single isomer, unassigned) [Example 6(b)] | inactive
Cl.O=C(N[C@H]1CN2CCC1CC2)c1ccc2c(c1)O[C@H](COc1ccccc1)CO2 [Example 12, (3R)-N-[(3R)-1-Azabicyclo[2.2.2]oct-3-yl]-3-(phenoxymethyl)-2,3-dihydro-1,4-benzodioxine-6-carboxamide Hydrochloride] | inactive
